The values below come from patent US20050084468A1, “Antimicrobial cleaning composition” (Colgate-Palmolive Company, priority 2003, published 2005).

Holding throughout (format): cell-based
The subject of assay [1] is wild germs from hand's volunteers (mainly Staphylococcus epidermitis). Kind of assay: Lasting antibacterial protection of the surface (treated ceramic tiles, imprint cfu count). The conditions noted are these: tiles rinsed 2×10 ml deionized water; inoculated 5 hours; counted after 48 hours at RT. The method, then: Measure of the Lasting Antibacterial Protection of the Surface […] After overnight drying of the treatment, tiles are rinsed with 2×10 ml deionized water and let dry for 1 hour. Tiles are then inoculated in the horizontal position for 5 hours with 200 μl of a suspension of wild germs from hand's volunteers (mainly Staphylococcus […]). After rinsing of the surface with 2×10 ml sterile tap water to remove the germs source, the contamination of the surface is determined by direct imprint with Tryptic Soy Agar plates (a nutritive gelified support). Colony forming units (=cfu=microorganisms) are counted after 48 hours incubation at RT.

Assay [2] has the same test system. As to the kind of experiment: Lasting antibacterial protection, stronger rinsing with water. The protocol:
(§1) Ceramic tiles are treated with 200 μl of the solutions to test; untreated tiles are used as reference. After overnight drying of the treatment, tiles are rinsed with 2×10 ml deionized water and let dry for 1 hour. Tiles are then inoculated in the horizontal position for 5 hours with 200 μl of a suspension of wild germs from hand's volunteers (mainly Staphylococcus epidermitis). After rinsing of the surface with 2×10 ml sterile tap water to remove the germs source, the contamination of the surface is determined by direct imprint with Tryptic Soy Agar plates (a nutritive gelified support). Colony forming units (=cfu=microorganisms) are counted after 48 hours incubation at RT.
Stronger Rinsing with Water:
Methodology is the same as described under example II but rinsing is operated either with 2×10 ml or 5×10 ml water or with a tap water shower head during 30 sec.

The test system is the same in assay [3]. Kind of assay: Lasting antibacterial protection, PHMB-Mucin in surfactant solutions. The conditions noted are these: surfactant solution alone (NO PHMB-Mucin), 2.5% AI in water. The method, then: as §1
PHMB-Mucin in Surfactant Solutions
Test methodology is described under example II. We considered nonionic surfactants (Neodols), anionics (SLS, PS), and amphoteric (CAPB) at 2.5% Al in water. The mixture is Neodol 91-8 1.25%, Neodol 91-5 0.25%, CAPB 0.45%, PS 0.5%.

Setting [4] is: rinsing tap water shower head 30 sec.

Turning to mucin [Mucin 0.1%], the “Cfu/ceramic tile Average on 3 replicates” value in assay [1] is reported as 82 ± 15 Cfu/ceramic tile. Also, the “cfu/ceramic tile average on 3 replicates” value in assay [2] (rinsing 2 × 10 ml water) is listed as 50 ± 19 cfu/ceramic tile; in assay [2] (rinsing 5 × 10 ml water), 129 ± 36 cfu/ceramic tile; in assay [2] (setting [4]), 149 ± 5 cfu/ceramic tile.

In the case of `CCCCCCCCCCCCOS(=O)(=O)[O-].[Na+]` [SLS, sodium lauryl sulfate], the figures for the “cfu/tile - average on 3 replicates” value in assay [3] (series of PHMB 0.06%-Mucin 0.03%) and in assay [3] (series of PHMB 0.09%-Mucin 0.05%) were 277 ± 34 cfu/tile and 77 ± 25 cfu/tile, respectively.

For mucin [Mucin 0.03%], in assay [1], the “Cfu/ceramic tile Average on 3 replicates” value amounted to 110 ± 18 Cfu/ceramic tile. The “cfu/ceramic tile average on 3 replicates” value is on record as 37 ± 3 cfu/ceramic tile in assay [2] (rinsing 2 × 10 ml water), 118 ± 43 cfu/ceramic tile in assay [2] (rinsing 5 × 10 ml water) and 145 ± 8 cfu/ceramic tile in assay [2] (setting [4]).

On to mucin [Mucin 0.05%], for which, in assay [1], the “Cfu/ceramic tile Average on 3 replicates” value was 68 ± 12 Cfu/ceramic tile. The “cfu/ceramic tile average on 3 replicates” value in assay [2] (rinsing 2 × 10 ml water) was found to be 26 ± 7 cfu/ceramic tile; in assay [2] (rinsing 5 × 10 ml water) it was 98 ± 23 cfu/ceramic tile; in assay [2] (setting [4]), 72 ± 17 cfu/ceramic tile.
